# Source: article PMC8903829 (eLife, 2022)
# Key:
# Format in all cases: cell-based
# mNaV1.6 = target: T1, mNaV1.6 (Mus musculus, UniProt Q9WTU3); assay: Qube 384 automated patch-clamp, inactivated-state inhibition
# T1 construct: expression vector containing the full-length cDNA coding for specific human and mouse sodium channel α-subunit; expressed in transfected cells
# hNaV1.6 N1466K = target: T2, hNaV1.6 N1466K (Homo sapiens, UniProt Q9UQD0, N1466K); assay: Automated patch-clamp, patient-identified variant in Expi293F cells; set-up: h1.6 -N1466K 145756, Mean: scale not given here
# T2 construct: expression vector containing the full-length cDNA coding for specific human and mouse sodium channel α-subunit; expressed in transfected cells; host or cells: Expi293F (transient, tetracycline-induced, pcDNA4/TO)
# T2 sequence (Q9UQD0 whole entry N1466K): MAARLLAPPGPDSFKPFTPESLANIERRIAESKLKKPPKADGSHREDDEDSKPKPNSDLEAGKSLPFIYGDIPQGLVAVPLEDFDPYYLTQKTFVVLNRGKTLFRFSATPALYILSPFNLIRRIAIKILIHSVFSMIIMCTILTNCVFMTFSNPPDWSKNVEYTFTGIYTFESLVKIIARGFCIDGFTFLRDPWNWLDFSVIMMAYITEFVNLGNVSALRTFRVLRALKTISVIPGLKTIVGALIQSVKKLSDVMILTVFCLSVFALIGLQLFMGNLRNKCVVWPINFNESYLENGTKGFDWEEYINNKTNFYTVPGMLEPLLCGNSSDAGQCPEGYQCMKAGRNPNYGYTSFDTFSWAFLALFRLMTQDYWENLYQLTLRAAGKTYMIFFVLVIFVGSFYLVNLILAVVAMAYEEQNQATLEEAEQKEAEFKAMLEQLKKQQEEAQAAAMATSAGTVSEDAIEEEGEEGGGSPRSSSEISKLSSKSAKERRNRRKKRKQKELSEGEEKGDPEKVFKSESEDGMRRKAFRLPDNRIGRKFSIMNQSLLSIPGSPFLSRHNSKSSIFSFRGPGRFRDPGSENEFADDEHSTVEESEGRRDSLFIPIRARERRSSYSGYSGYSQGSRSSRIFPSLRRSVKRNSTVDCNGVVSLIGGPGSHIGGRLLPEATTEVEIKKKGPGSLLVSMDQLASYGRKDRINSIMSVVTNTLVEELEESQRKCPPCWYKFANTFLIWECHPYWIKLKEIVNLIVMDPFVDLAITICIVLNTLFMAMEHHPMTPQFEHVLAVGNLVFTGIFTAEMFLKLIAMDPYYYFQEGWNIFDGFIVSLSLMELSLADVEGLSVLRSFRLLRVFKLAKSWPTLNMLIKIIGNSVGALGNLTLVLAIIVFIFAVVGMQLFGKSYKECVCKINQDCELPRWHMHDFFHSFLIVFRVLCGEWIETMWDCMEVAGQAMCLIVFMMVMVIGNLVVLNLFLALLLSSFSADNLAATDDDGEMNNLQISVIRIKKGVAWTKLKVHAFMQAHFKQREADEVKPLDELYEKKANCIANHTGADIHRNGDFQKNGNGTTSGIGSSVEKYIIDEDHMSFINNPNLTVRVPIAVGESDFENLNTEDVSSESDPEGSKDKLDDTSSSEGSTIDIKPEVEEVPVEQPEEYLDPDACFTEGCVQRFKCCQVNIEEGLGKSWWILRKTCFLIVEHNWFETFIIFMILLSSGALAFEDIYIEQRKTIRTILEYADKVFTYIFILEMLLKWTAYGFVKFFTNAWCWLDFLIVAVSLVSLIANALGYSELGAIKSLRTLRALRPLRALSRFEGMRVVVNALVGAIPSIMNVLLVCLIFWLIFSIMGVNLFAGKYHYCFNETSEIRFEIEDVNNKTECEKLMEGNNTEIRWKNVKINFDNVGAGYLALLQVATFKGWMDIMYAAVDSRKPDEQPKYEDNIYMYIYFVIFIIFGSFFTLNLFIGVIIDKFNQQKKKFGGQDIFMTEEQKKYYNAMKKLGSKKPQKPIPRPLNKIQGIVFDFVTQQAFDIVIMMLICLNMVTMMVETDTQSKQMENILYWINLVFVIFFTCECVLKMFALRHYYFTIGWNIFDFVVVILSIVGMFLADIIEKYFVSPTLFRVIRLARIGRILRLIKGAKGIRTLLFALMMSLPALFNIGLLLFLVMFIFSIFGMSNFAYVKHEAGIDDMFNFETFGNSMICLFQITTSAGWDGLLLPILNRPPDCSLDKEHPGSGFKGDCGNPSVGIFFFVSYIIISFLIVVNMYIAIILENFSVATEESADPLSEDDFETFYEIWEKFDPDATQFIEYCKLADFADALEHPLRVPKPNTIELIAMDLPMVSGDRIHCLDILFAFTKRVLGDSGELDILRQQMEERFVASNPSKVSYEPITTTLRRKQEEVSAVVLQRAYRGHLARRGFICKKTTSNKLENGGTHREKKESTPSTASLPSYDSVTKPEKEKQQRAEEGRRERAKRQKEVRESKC
# Experimental: (§1) For studies of mutant channels, cDNA plasmids in pcDNA4/TO Mammalian Expression Vector were transiently transfected into Expi293F cells stably expressing human FHF2b and human SCN1B subunit (polyclonal) background using ExpiFectamine 293 Transfection Kits (Gibco,Thermo Fisher Scientific CAT #: A14524). Induction was achieved using Tetracycline (Sigma Aldrich). Transfected cells were used in automated patch-clamp experiments 24 hours postinduction.
# (§2) Inorm(CPD)=(ICPD−Icontrol)/(ITTX−Icontrol).
# hNaV1.1 = target: T3, hNaV1.1 (Homo sapiens, UniProt P35498); assay: Qube 384 automated patch-clamp, inactivated-state inhibition
# T3 construct: expression vector containing the full-length cDNA coding for specific human and mouse sodium channel α-subunit; expressed in transfected cells
# hNaV1.6 R850Q = target: T4, hNaV1.6 R850Q (Homo sapiens, UniProt Q9UQD0, R850Q); assay: Automated patch-clamp, patient-identified variant in Expi293F cells
# T4 construct: expression vector containing the full-length cDNA coding for specific human and mouse sodium channel α-subunit; expressed in transfected cells; host or cells: Expi293F (transient, tetracycline-induced, pcDNA4/TO)
# T4 sequence (Q9UQD0 whole entry R850Q): as the sequence (Q9UQD0 whole entry N1466K) above, with R850Q, K1466N counted along it
# Experimental: as §1, §2
# hNaV1.6 T767I = target: T5, hNaV1.6 T767I (Homo sapiens, UniProt Q9UQD0, T767I); assay: as above
# T5 construct: expression vector containing the full-length cDNA coding for specific human and mouse sodium channel α-subunit; expressed in transfected cells; host or cells: Expi293F (transient, tetracycline-induced, pcDNA4/TO)
# T5 sequence (Q9UQD0 whole entry T767I): as the sequence (Q9UQD0 whole entry N1466K) above, with T767I, K1466N counted along it
# Experimental: as §1, §2
# hNaV1.7 = target: T6, hNaV1.7 (Homo sapiens, UniProt Q15858); assay: Qube 384 automated patch-clamp, inactivated-state inhibition
# T6 construct: expression vector containing the full-length cDNA coding for specific human and mouse sodium channel α-subunit; expressed in transfected cells
# T6 sequence (Q15858 1-1977 isoform Q15858-3): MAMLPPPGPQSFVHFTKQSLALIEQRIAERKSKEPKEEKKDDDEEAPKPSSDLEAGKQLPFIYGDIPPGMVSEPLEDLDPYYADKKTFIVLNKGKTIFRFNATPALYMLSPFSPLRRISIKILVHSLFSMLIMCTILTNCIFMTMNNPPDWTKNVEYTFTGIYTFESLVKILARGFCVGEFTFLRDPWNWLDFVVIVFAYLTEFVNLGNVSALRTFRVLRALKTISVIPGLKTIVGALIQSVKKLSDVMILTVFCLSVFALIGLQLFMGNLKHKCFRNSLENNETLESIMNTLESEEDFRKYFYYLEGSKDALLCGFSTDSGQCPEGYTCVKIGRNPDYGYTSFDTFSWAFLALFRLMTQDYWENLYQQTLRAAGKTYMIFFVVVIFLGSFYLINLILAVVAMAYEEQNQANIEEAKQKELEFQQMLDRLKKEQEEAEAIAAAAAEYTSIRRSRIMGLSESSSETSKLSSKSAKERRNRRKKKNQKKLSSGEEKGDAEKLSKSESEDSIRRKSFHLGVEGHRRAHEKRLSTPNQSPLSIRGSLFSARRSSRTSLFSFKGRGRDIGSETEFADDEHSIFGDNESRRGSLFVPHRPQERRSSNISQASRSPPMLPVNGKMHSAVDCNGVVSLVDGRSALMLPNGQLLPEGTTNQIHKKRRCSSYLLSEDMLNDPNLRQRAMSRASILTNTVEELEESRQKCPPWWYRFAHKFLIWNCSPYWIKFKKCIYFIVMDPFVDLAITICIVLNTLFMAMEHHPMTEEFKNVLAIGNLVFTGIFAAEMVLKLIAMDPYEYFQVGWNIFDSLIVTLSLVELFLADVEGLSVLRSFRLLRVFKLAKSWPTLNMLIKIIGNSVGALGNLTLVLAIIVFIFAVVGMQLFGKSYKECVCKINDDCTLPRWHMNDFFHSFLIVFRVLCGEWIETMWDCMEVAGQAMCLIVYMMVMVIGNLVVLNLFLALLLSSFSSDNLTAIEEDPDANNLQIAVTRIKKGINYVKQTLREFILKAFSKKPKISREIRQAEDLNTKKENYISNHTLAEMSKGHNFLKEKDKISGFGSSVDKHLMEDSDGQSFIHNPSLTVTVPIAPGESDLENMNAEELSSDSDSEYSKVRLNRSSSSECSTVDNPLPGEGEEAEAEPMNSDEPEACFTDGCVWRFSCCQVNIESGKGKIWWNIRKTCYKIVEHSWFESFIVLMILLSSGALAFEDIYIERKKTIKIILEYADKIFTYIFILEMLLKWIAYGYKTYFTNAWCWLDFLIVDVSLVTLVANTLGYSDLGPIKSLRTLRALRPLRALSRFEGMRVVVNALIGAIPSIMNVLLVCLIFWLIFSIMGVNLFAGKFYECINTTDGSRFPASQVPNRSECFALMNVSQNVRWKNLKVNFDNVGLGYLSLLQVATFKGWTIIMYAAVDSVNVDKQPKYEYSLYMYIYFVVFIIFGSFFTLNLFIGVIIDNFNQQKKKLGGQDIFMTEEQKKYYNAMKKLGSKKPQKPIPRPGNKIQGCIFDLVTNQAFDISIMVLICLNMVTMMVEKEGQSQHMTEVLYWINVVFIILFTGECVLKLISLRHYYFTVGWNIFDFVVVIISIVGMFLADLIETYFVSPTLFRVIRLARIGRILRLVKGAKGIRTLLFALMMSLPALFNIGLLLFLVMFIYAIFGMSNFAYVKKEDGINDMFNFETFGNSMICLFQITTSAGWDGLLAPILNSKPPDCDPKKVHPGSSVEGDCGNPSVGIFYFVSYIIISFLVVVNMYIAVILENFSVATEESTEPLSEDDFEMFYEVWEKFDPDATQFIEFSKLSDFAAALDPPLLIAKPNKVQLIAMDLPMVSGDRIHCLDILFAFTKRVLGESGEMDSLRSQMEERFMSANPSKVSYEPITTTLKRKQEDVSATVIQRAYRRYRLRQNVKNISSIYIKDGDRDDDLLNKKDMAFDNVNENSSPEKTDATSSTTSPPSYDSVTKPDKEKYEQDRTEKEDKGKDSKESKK
# Excerpt: All of the cell lines tested negative for mycoplasma.
# as §2
smiles,measurement,setting,value
Cc1cc(S(=O)(=O)Nc2cscn2)c(F)cc1N(C)[C@H]1CCN(Cc2ccccc2)C1 [NBI-921352],mNaV1.6 current (352)/(Vehicle),mNaV1.6; -5 Log M,0.92
same,mNaV1.6 current (352)/(Vehicle),mNaV1.6; -5.47716 Log M,0.9
same,mNaV1.6 current (352)/(Vehicle),mNaV1.6; -5.95429 Log M,0.84
same,mNaV1.6 current (352)/(Vehicle),mNaV1.6; -6.91009 Log M,0.63
same,mNaV1.6 current (352)/(Vehicle),mNaV1.6; -7.38722 Log M,0.48
same,mNaV1.6 current (352)/(Vehicle),mNaV1.6; -7.85387 Log M,0.27
same,mNaV1.6 current (352)/(Vehicle),mNaV1.6; -8.30103 Log M,0.12
same,IC50,mNaV1.6; Vh -45 mV,58 nM
same,IC50,hNaV1.6 N1466K,39 nM
same,"h1.6 -N1466K 145756, Mean",hNaV1.6 N1466K; -5 LogM,0.92
same,"h1.6 -N1466K 145756, Mean",hNaV1.6 N1466K; -5.47716 LogM,0.94
same,"h1.6 -N1466K 145756, Mean",hNaV1.6 N1466K; -5.95429 LogM,0.81
same,"h1.6 -N1466K 145756, Mean",hNaV1.6 N1466K; -6.4318 LogM,0.73
same,"h1.6 -N1466K 145756, Mean",hNaV1.6 N1466K; -6.91009 LogM,0.69
same,"h1.6 -N1466K 145756, Mean",hNaV1.6 N1466K; -7.38722 LogM,0.47
same,"h1.6 -N1466K 145756, Mean",hNaV1.6 N1466K; -7.85387 LogM,0.32
same,"h1.6 -N1466K 145756, Mean",hNaV1.6 N1466K; -8.33 LogM,0.15
same,"hNav1.1 current in (352)/(Vehicle), mean",hNaV1.1; -4 Log M,0.68
same,"hNav1.1 current in (352)/(Vehicle), mean",hNaV1.1; -4.30103 Log M,0.57
same,"hNav1.1 current in (352)/(Vehicle), mean",hNaV1.1; -4.47713 Log M,0.44
same,"hNav1.1 current in (352)/(Vehicle), mean",hNaV1.1; -4.77814 Log M,0.3
same,"hNav1.1 current in (352)/(Vehicle), mean",hNaV1.1; -4.95425 Log M,0.25
same,"hNav1.1 current in (352)/(Vehicle), mean",hNaV1.1; -5.25524 Log M,0.16
same,"hNav1.1 current in (352)/(Vehicle), mean",hNaV1.1; -5.43133 Log M,0.12
same,"hNav1.1 current in (352)/(Vehicle), mean",hNaV1.1; -5.73236 Log M,0.07
same,"hNav1.1 current in (352)/(Vehicle), mean",hNaV1.1; -5.90833 Log M,0.07
same,"hNav1.1 current in (352)/(Vehicle), mean",hNaV1.1; -6.20971 Log M,0.04
same,"hNav1.1 current in (352)/(Vehicle), mean",hNaV1.1; -6.3851 Log M,0.03
same,"hNav1.1 current in (352)/(Vehicle), mean",hNaV1.1; -6.68613 Log M,0.05
same,"hNav1.1 current in (352)/(Vehicle), mean",hNaV1.1; -6.86328 Log M,0.01
same,"hNav1.1 current in (352)/(Vehicle), mean",hNaV1.1; -7.16115 Log M,0.04
same,"hNav1.1 current in (352)/(Vehicle), mean",hNaV1.1; -7.33724 Log M,0
same,"hNav1.1 current in (352)/(Vehicle), mean",hNaV1.1; -7.63827 Log M,0.01
same,IC50,hNaV1.6 R850Q,21 nM
same,"h1.6-R850Q 145756, Mean",hNaV1.6 R850Q; -5 LogM,0.91
same,"h1.6-R850Q 145756, Mean",hNaV1.6 R850Q; -5.47716 LogM,0.88
same,"h1.6-R850Q 145756, Mean",hNaV1.6 R850Q; -5.95429 LogM,0.86
same,"h1.6-R850Q 145756, Mean",hNaV1.6 R850Q; -6.4318 LogM,0.83
same,"h1.6-R850Q 145756, Mean",hNaV1.6 R850Q; -6.91009 LogM,0.79
same,"h1.6-R850Q 145756, Mean",hNaV1.6 R850Q; -7.38722 LogM,0.58
same,"h1.6-R850Q 145756, Mean",hNaV1.6 R850Q; -7.85387 LogM,0.43
same,"h1.6-R850Q 145756, Mean",hNaV1.6 R850Q; -8.33 LogM,0.13
same,IC50,hNaV1.6 T767I,31 nM
same,"h1.6-T767I 145756, Mean",hNaV1.6 T767I; -5 LogM,0.91
same,"h1.6-T767I 145756, Mean",hNaV1.6 T767I; -5.47716 LogM,0.92
same,"h1.6-T767I 145756, Mean",hNaV1.6 T767I; -5.95429 LogM,0.86
same,"h1.6-T767I 145756, Mean",hNaV1.6 T767I; -6.4318 LogM,0.86
same,"h1.6-T767I 145756, Mean",hNaV1.6 T767I; -6.91009 LogM,0.75
same,"h1.6-T767I 145756, Mean",hNaV1.6 T767I; -7.38722 LogM,0.58
same,"h1.6-T767I 145756, Mean",hNaV1.6 T767I; -7.85387 LogM,0.19
same,"h1.6-T767I 145756, Mean",hNaV1.6 T767I; -8.33 LogM,0.1
same,"hNav1.7 current (352)/(Vehicle), mean",hNaV1.7; -4.52288 Log M,0.74
same,"hNav1.7 current (352)/(Vehicle), mean",hNaV1.7; -5 Log M,0.41
same,"hNav1.7 current (352)/(Vehicle), mean",hNaV1.7; -5.47716 Log M,0.2
same,"hNav1.7 current (352)/(Vehicle), mean",hNaV1.7; -5.95429 Log M,0.08
same,"hNav1.7 current (352)/(Vehicle), mean",hNaV1.7; -6.91009 Log M,0.02
same,"hNav1.7 current (352)/(Vehicle), mean",hNaV1.7; -7.38722 Log M,0.01
same,"hNav1.7 current (352)/(Vehicle), mean",hNaV1.7; -7.85387 Log M,0.02
